Consider 27 molecules from US8518945B2, “Pyrrolopyrazine kinase inhibitors” (Hoffmann-La Roche Inc., priority 2010, dated 2013).

The IC50 is the concentration that inhibits the measured activity by half.

T1 sequence (P52333 810-1124): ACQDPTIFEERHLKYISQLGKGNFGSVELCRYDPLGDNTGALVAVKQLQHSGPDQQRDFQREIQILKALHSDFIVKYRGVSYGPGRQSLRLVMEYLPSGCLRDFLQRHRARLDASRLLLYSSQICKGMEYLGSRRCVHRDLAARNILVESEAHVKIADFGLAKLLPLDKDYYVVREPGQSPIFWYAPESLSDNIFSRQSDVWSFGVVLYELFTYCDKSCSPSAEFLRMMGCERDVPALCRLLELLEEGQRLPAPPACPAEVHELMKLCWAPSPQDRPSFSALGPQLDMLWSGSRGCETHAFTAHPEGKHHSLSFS

The experiment has as its target T1, h-jak3(810-1124) (JAK3: Recombinant human kinase domain) (Homo sapiens, UniProt P52333).
T1 construct: jak3(810- 1124)-sf9-c; made in house; host or cells: Sf9
The experiment can be described thus: Determination of IC50 of Janus Kinase (JAK) inhibition: JAK3 radioactive end-point 33P-ATP kinase assay. The following applies: no additive; ATP 1.5 uM, peptide 50 uM, 20 minutes, room temperature; read-out: Ic50 h-jak3(810-1124)-sf9-c: no additive. The experiment is classed as biochemical.
With `CC(C)(C)C[C@@H](NC(=O)c1c[nH]c2ncc(C3CC3)nc12)C(=O)N1CCC(C#N)CC1` [Example I-49, 2-Cyclopropyl-5H-pyrrolo[2,3-b]pyrazine-7-carboxylic acid [(R)-1-(4-cyano-piperidine-1-carbonyl)-3,3-dimethyl-butyl]-amide], the IC50 is 1.01 nM.
On to `CCn1cc(-c2cnc3[nH]cc(C(=O)N[C@H](C(=O)N4CCC(C#N)CC4)C4(C(F)(F)F)CC4)c3n2)cn1` [Example I-74, 2-(1-Ethyl-1H-pyrazol-4-yl)-5H-pyrrolo[2,3-b]pyrazine-7-carboxylic acid [(S)-2-(4-cyano-piperidin-1-yl)-2-oxo-1-(1-trifluoromethyl-cyclopropyl)-ethyl]-amide], for which the IC50 came to 1.13 nM.
For `CC(C)(C)[C@@H](NC(=O)c1c[nH]c2ncc(C3CC3)nc12)C(=O)N1CCC(F)(F)CC1` [Example I-52, 2-Cyclopropyl-5H-pyrrolo[2,3-b]pyrazine-7-carboxylic acid [(R)-1-(4,4-difluoro-piperidine-1-carbonyl)-2,2-dimethyl-propyl]-amide] the value was 440 nM; for `C[C@@H](NC(=O)c1c[nH]c2ncc(-c3cc4nccc(OCC(F)(F)F)c4s3)nc12)C(=O)N1CC(C#N)C1` [Example I-102, 2-[7-(2,2,2-Trifluoro-ethoxy)-thieno[3,2-b]pyridin-2-yl]-5H-pyrrolo[2,3-b]pyrazine-7-carboxylic acid [(R)-2-(3-cyano-azetidin-1-yl)-1-methyl-2-oxo-ethyl]-amide], 43.1 nM.
Consider `CC(C)(C)[C@@H](NC(=O)c1c[nH]c2ncc(OCC(F)(F)F)nc12)C(=O)N1CCC(C#N)CC1` [Example I-93, 2-(2,2,2-Trifluoro-ethoxy)-5H-pyrrolo[2,3-b]pyrazine-7-carboxylic acid [(R)-1-(4-cyano-piperidine-1-carbonyl)-2,2-dimethyl-propyl]-amide], for which the IC50 turned out to be 16.4 nM.
For `CC(C)(C)[C@@H](NC(=O)c1c[nH]c2ncc(C3CC3)nc12)C(=O)N1CCCC(C#N)C1` (stereo partly drawn) [Example I-29, 2-Cyclopropyl-5H-pyrrolo[2,3-b]pyrazine-7-carboxylic acid [(R)-1-(3-cyano-piperidine-1-carbonyl)-2,2-dimethyl-propyl]-amide] the value was 13.6 nM; for `CC(C)(C)[C@@H](NC(=O)c1c[nH]c2ncc(-c3cc(OC4CCCC4)ccn3)nc12)C(=O)N1CCC(C#N)CC1` [Example I-130, 2-(4-Cyclopentyloxy-pyridin-2-yl)-5H-pyrrolo[2,3-b]pyrazine-7-carboxylic acid [(R)-1-(4-cyano-piperidine-1-carbonyl)-2,2-dimethyl-propyl]-amide], 113 nM.
Next, `CC(C)(C)[C@@H](NC(=O)c1c[nH]c2ncc(-c3cn[nH]c3)nc12)C(=O)N1CCC(C#N)CC1` [Example I-54, 2-(1H-Pyrazol-4-yl)-5H-pyrrolo[2,3-b]pyrazine-7-carboxylic acid [(R)-1-(4-cyano-piperidine-1-carbonyl)-2,2-dimethyl-propyl]-amide]: 14.9 nM.
Next, `CC(C)[C@@H](NC(=O)c1c[nH]c2ncc(C3CC3)nc12)C(=O)N1CCOCC1` [Example I-8, 2-Cyclopropyl-5H-pyrrolo[2,3-b]pyrazine-7-carboxylic acid [(R)-2-methyl-1-(morpholine-4-carbonyl)-propyl]-amide]: 12.3 nM; `C[C@@H](NC(=O)c1c[nH]c2ncc(C3CC3)nc12)C(=O)N1CCC(C(F)(F)F)C1` (stereo partly drawn) [Example I-25, 2-Cyclopropyl-5H-pyrrolo[2,3-b]pyrazine-7-carboxylic acid [(R)-1-methyl-2-oxo-2-(3-trifluoromethyl-pyrrolidin-1-yl)-ethyl]-amide]: 16.1 nM; `CCn1cc(-c2cnc3[nH]cc(C(=O)N[C@@H](C(=O)N4CCC(F)(C#N)C4)C(C)(C)C)c3n2)cn1` (stereo partly drawn) [Example I-36, 2-(1-Ethyl-1H-pyrazol-4-yl)-5H-pyrrolo[2,3-b]pyrazine-7-carboxylic acid [(R)-1-(3-cyano-3-fluoro-pyrrolidine-1-carbonyl)-2,2-dimethyl-propyl]-amide]: at most 0.32 nM.
As for `C[C@@H](NC(=O)c1c[nH]c2ncc(C3CC3)nc12)C(=O)N1CC2(COC2)C1` [Example I-24, 2-Cyclopropyl-5H-pyrrolo[2,3-b]pyrazine-7-carboxylic acid [(R)-1-methyl-2-(2-oxa-6-aza-spiro[3.3]hept-6-yl)-2-oxo-ethyl]-amide], the IC50 is 72.8 nM.
Next, `Cn1cc(-c2cnc3[nH]cc(C(=O)N[C@@H](C(=O)N4CC(C)(C#N)C4)C4CC4)c3n2)cn1` [Example I-142, 2-(1-Methyl-1H-pyrazol-4-yl)-5H-pyrrolo[2,3-b]pyrazine-7-carboxylic acid [(R)-2-(3-cyano-3-methyl-azetidin-1-yl)-1-cyclopropyl-2-oxo-ethyl]-amide]: 0.47 nM; `CC(C)(C)[C@@H](NC(=O)c1c[nH]c2ncc(C3CC3)nc12)C(=O)N1CCC(O)(c2ccccc2)CC1` [Example I-65, 2-Cyclopropyl-5H-pyrrolo[2,3-b]pyrazine-7-carboxylic acid [(R)-1-(4-hydroxy-4-phenyl-piperidine-1-carbonyl)-2,2-dimethyl-propyl]-amide]: 0.87 nM.
As to `N#CC1CN(C(=O)[C@H](NC(=O)c2c[nH]c3ncc(-c4cc5nccc(OCC(F)(F)F)c5s4)nc23)C2CC2)C1` [Example I-98, 2-[7-(2,2,2-Trifluoro-ethoxy)-thieno[3,2-b]pyridin-2-yl]-5H-pyrrolo[2,3-b]pyrazine-7-carboxylic acid [(R)-2-(3-cyano-azetidin-1-yl)-1-cyclopropyl-2-oxo-ethyl]-amide], the half-inhibitory concentration (IC50) was determined as 2.16 nM.
For `C[C@@H](NC(=O)c1c[nH]c2ncc(-c3cccc(N4CCC(C)(C)C4)c3)nc12)C(=O)N1CC(C#N)C1` [Example I-123, 2-[3-(3,3-Dimethyl-pyrrolidin-1-yl)-phenyl]-5H-pyrrolo[2,3-b]pyrazine-7-carboxylic acid [(R)-2-(3-cyano-azetidin-1-yl)-1-methyl-2-oxo-ethyl]-amide], the IC50 is 0.62 nM.
Next, `CC(C)(C)[C@@H](NC(=O)c1c[nH]c2ncc(C3CC3)nc12)C(=O)N1CCCCC1` [Example I-32, 2-Cyclopropyl-5H-pyrrolo[2,3-b]pyrazine-7-carboxylic acid [(R)-2,2-dimethyl-1-(piperidine-1-carbonyl)-propyl]-amide]: 0.98 nM; `COc1ccnc(-c2cnc3[nH]cc(C(=O)N[C@@H](C(=O)N4CCC(C#N)CC4)C(C)(C)C)c3n2)c1` [Example I-127, 2-(4-Methoxy-pyridin-2-yl)-5H-pyrrolo[2,3-b]pyrazine-7-carboxylic acid [(R)-1-(4-cyano-piperidine-1-carbonyl)-2,2-dimethyl-propyl]-amide]: 3.56 nM.
Next, `CCn1cc(-c2cnc3[nH]cc(C(=O)N[C@@H](C(=O)N4CCC(C#N)CC4)C4CC4)c3n2)cn1` [Example I-71, 2-(1-Ethyl-1H-pyrazol-4-yl)-5H-pyrrolo[2,3-b]pyrazine-7-carboxylic acid [(R)-2-(4-cyano-piperidin-1-yl)-1-cyclopropyl-2-oxo-ethyl]-amide]: 3.92 nM; `CNC(=O)c1cccc(-c2cnc3[nH]cc(C(=O)N[C@H](C)C(=O)N4CC(C#N)C4)c3n2)c1` [Example I-110, 2-(3-Methylcarbamoyl-phenyl)-5H-pyrrolo[2,3-b]pyrazine-7-carboxylic acid [(R)-2-(3-cyano-azetidin-1-yl)-1-methyl-2-oxo-ethyl]-amide]: 1.22 nM; `Cc1nc(-c2cnc3[nH]cc(C(=O)N[C@@H](C(=O)N4CC(C#N)C4)C4CC4)c3n2)cn1-c1ccccc1` [Example I-159, 2-(2-Methyl-1-phenyl-1H-imidazol-4-yl)-5H-pyrrolo[2,3-b]pyrazine-7-carboxylic acid [(R)-2-(3-cyano-azetidin-1-yl)-1-cyclopropyl-2-oxo-ethyl]-amide]: 2.66 nM.
Consider `CCn1cc(-c2cnc3[nH]cc(C(=O)N[C@@H](C(=O)N4CCC(C#N)CC4)C(C)(C)C)c3n2)cn1` [Example I-56, 2-(1-Ethyl-1H-pyrazol-4-yl)-5H-pyrrolo[2,3-b]pyrazine-7-carboxylic acid [(R)-1-(4-cyano-piperidine-1-carbonyl)-2,2-dimethyl-propyl]-amide], for which the IC50 turned out to be 0.77 nM.
For `C[C@@H](NC(=O)c1c[nH]c2ncc(-c3cc(-n4cccn4)ccn3)nc12)C(=O)N1CC(C#N)C1` [Example I-152, 2-(4-Pyrazol-1-yl-pyridin-2-yl)-5H-pyrrolo[2,3-b]pyrazine-7-carboxylic acid [(R)-2-(3-cyano-azetidin-1-yl)-1-methyl-2-oxo-ethyl]-amide] the value was 9.52 nM; for `COc1cc(-c2cnc3[nH]cc(C(=O)N[C@@H](C(=O)N4CCC(C#N)CC4)C(C)(C)C)c3n2)cc(OC)c1OC` [Example I-64, 2-(3,4,5-Trimethoxy-phenyl)-5H-pyrrolo[2,3-b]pyrazine-7-carboxylic acid [(R)-1-(4-cyano-piperidine-1-carbonyl)-2,2-dimethyl-propyl]-amide], 94.9 nM.
Regarding `N#CC1CN(C(=O)[C@H](NC(=O)c2c[nH]c3ncc(-c4ccccc4)nc23)C2CC2)C1` [Example I-166, 2-Phenyl-5H-pyrrolo[2,3-b]pyrazine-7-carboxylic acid [(R)-2-(3-cyano-azetidin-1-yl)-1-cyclopropyl-2-oxo-ethyl]-amide], the concentration for half-maximal inhibition (IC50) was at most 0.32 nM.
As for `CC[C@H](C)[C@@H](NC(=O)c1c[nH]c2ncc(C3CC3)nc12)C(=O)N1CCC(C#N)CC1` [Example I-124, 2-Cyclopropyl-5H-pyrrolo[2,3-b]pyrazine-7-carboxylic acid [(1R,2S)-1-(4-cyano-piperidine-1-carbonyl)-2-methyl-butyl]-amide], the IC50 came to 1.37 nM.
For `C[C@@H](NC(=O)c1c[nH]c2ncc(C3CC3)nc12)C(=O)N1CCC(F)(F)C1` [Example I-21, 2-Cyclopropyl-5H-pyrrolo[2,3-b]pyrazine-7-carboxylic acid [(R)-2-(3,3-difluoro-pyrrolidin-1-yl)-1-methyl-2-oxo-ethyl]-amide], the IC50 was 14.9 nM.
